From patent publication US5482971A, “Beta3 -adrenergic agents and their use in pharmaceutical compositions” (American Cyanamid Company, priority 1993, dated 1996)

What was measured:
[1] = target: T1, beta3 -adrenergic receptor (Rattus norvegicus, UniProt P26255); assay: β3-effect: stimulation of adipocyte lipolysis (rat epididymal fat pad cells, glycerol release); type: cell-based; details: rat epididymal adipocytes, 37° C., 30 minutes; concentration giving 50% of the maximum rate of lipolysis of that compound
T1 construct: Rat epididymal fat pads are excised and placed in 0.9% saline; from tissue; host or cells: collagenase-isolated adipocytes from rat epididymal fat pads
T1 sequence (P26255 whole entry): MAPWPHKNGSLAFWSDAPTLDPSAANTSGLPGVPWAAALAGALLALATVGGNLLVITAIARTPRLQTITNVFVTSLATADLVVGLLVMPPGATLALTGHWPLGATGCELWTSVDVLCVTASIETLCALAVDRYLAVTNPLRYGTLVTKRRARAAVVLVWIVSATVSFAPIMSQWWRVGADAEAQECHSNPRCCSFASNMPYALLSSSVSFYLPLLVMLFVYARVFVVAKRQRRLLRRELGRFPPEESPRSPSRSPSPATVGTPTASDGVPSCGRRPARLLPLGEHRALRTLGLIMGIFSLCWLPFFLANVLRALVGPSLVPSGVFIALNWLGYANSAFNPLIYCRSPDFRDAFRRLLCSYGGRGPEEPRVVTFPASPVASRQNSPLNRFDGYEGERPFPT
Experimental: (§1) Selectivity of a compound is determined using the following procedures.
The β3 -effect of the compounds is determined by their ability to stimulate adipocyte lipolysis. Rat epididymal fat pads are excised and placed in 0.9% saline. Four grams of tissue is transferred to a flask with 20 ml of aerated Krebs-Henseleit bicarbonate (KHB) buffer containing 3% fatty acid-free bovine serum albumin to which 75 mg of crude bacterial collagenase (Worthington) has been added. The tissue is incubated for about 45 minutes at 37° C. with gentle shaking. The cells are then washed three times with two volumes of KHB buffer, filtered through two layers of gauze, and brought to a final volume of 80 ml with KHB buffer. One ml aliquots of the cell suspension is added to plastic test tubes containing the appropriate additions of vehicle or compound. The cells are gassed for 1 minute with 95%O2 -5%CO2, capped, and incubated at 37° C. with continuous shaking for a total of 30 minutes. The reaction is stopped by adding 0.1 ml of 30% perchloric acid and 0.1 ml of chloroform. […] The amount of glycerol generated from the hydrolysis of endogenous triglycerides is determined in a coupled-enzyme spectrophotometric assay. […] The amount of NADH generated, which is proportional to the amount of glycerol, is determined by the increase in absorbance at 340 nm. […]

[2] = target: T2, beta1 -adrenergic receptor (Rattus norvegicus, UniProt P18090); assay: Heart binding: β1-effect, membranes from rat heart, [125I]iodocyanopindolol; details: incubation 1 hour
T2 construct: membranes from rat heart; from tissue; host or cells: rat heart membranes
T2 sequence (P18090 whole entry): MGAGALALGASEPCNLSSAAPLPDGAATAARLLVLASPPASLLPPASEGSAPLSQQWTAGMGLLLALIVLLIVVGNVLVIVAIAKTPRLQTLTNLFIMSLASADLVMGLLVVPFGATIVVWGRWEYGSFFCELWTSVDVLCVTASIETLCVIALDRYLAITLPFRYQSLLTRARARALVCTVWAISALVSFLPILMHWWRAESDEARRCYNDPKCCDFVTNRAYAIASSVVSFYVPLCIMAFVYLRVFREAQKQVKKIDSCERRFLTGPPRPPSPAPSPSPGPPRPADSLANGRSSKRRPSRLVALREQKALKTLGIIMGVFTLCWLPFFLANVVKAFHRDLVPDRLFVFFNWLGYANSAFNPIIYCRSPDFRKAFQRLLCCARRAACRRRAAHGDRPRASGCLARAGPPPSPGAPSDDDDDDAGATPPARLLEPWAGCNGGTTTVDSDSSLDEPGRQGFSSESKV
Experimental: as §1
(§2) Binding assays for β1 -effect are carried out by the use of membranes from rat heart, and β2 -effect by the use of membranes from rat lung by the method described in Neve, et at., J. Pharmacol. Exp. Ther., 1985, 235, 657-664 with the following exceptions:
(§3) 1. the incubation volume is 0.5 ml,
(§4) 2. the incubation time is 1 hour,
(§5) 3. the radioligand is [^125 I]iodocyanopindolol,
(§6) 4. (-)-isoproterenol (50 μM) is used to define specific binding, and
(§7) 5. the filters are washed at 4° C.

[3] = target: T3, beta2 -adrenergic receptor (Rattus norvegicus, UniProt P10608); assay: Lung binding: β2-effect, membranes from rat lung, [125I]iodocyanopindolol; details: incubation 1 hour
T3 construct: membranes from rat lung; from tissue; host or cells: rat lung membranes
T3 sequence (P10608 whole entry): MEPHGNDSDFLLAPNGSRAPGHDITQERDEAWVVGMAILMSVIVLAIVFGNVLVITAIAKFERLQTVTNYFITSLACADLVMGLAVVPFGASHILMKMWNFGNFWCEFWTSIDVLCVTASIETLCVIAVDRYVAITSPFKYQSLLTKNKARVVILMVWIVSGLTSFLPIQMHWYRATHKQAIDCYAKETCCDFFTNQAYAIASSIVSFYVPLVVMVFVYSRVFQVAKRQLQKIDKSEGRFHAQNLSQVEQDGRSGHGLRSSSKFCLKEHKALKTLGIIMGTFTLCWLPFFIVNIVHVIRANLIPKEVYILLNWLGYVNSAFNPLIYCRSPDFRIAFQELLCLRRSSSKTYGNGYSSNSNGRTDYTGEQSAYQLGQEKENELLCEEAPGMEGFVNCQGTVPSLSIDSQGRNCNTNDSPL
Experimental: as §1, §2, §3, §4, §5, §6, §7

EC50 [1]: 17 nM
IC50 [2]: 19000 nM
IC50 [3]: 20000 nM
Structure (SMILES): C[C@H](CCc1ccc2c(c1)OC(C(=O)O)(C(=O)O)O2)NC[C@H](O)c1cccc(Cl)c1 [Example 3, Disodium (R,R)-5-((3-(2-(3-chlorophenyl)-2-hydroxyethyl)amino)butyl)-1,3-benzodioxole-2,2-dicarboxylate]
